The test system of this data set is mouse collagen-induced arthritis model. In words: Mouse collagen-induced arthritis model. It counts as in vivo. The method, then:
On Days 0 and 21, […] of chicken cartilage-derived collagen (Nippon Meat Packers, Inc., Japan) in 0.1 mL of complete Freund's adjuvant (Difco Laboratories, Inc., U.S.) was subcutaneously injected to female DBA/1J Jms Slc mice (6- to 8-week-old) (Japan SLC, Japan) to immunize the mice.
Among the compounds of the present invention, a representative test compound (Example compound 1-N-6 or 2-N-100) was orally administered twice daily every day from Day 21 to Day 34 at a dose of 25 or 50 mg/kg (method A) or from Day 21 to Day 29 at a dose of 1, 3, 10, or 30 mg/kg (method B). The solution for administration was prepared by using 0.5% w/v Methylcellulose 400 Solution (Wako Pure Chemical Industries, Ltd.) as a solvent.
After administration of collagen on Day 21, the extent of development of arthritis in the mouse limbs were scored by visually observing each limb periodically according to the clinical scores outlined in Table X-1.
The clinical scores for all four limbs were summed up for each mouse and the mean±standard error (SE) of each treatment group was calculated. Evaluation was performed until the following day of the final administration.

The text below walks through data of US8299055B2, “8-substituted isoquinoline derivative and the use thereof” (Asahi Kasei Pharma Corporation, priority 2008, dated 2012).

Consider `Cc1ccc(C(=O)N2CCC(Nc3cc(-c4cccc(C#N)c4)cc4ccncc34)CC2)cn1` [Example 2-N-100], for which the toxicity entry (method B: oral twice daily Day 21 to Day 29, 1, 3, 10 or 30 mg/kg) is recorded as “did not exhibit toxicity”. The “onset of arthritis (clinical scores)” value (method B: oral twice daily Day 21 to Day 29, 1, 3, 10 or 30 mg/kg, FIG. 2) is recorded as “suppressed the onset of arthritis”.
`N#Cc1cccc(-c2cc(N3CCNCC3)c3cnccc3c2)c1` [Example 1-N-6]: where the note is “method A: oral twice daily Day 21 to Day 34, 25 or 50 mg/kg”, the toxicity result is on record as “did not exhibit toxicity”. In addition, the “onset of arthritis (clinical scores)” value (method A: oral twice daily Day 21 to Day 34, 25 or 50 mg/kg, FIG. 1) is recorded as “suppressed the onset of arthritis”.
